Results: patent US20240344145A1, “PHARMACOGENOMICS SCORE TO MAKE DECISIONS ON THERAPY AUGMENTATION IN AML” (University of Florida Research Foundation, Incorporated, priority 2021, published 2024)

Tested on: ara-C metabolic pathway genes
Assay: Association of ara-C pathway SNP genotypes with MRD1, EFS and OS in AML02 (logistic regression and Cox models; also within LDAC and HDAC arms)
Set-up: species or system human
Details: within arm of AML02
Excerpt: Genomic DNA from patients enrolled in the multi-site St. Jude AML02 trial was genotyped for 155 SNPs in 16 genes of relevance to ara-C pharmacology using sequenom iPlex platform that uses MALDI-TOF based chemistry at University of Minnesota, Biomedical Genomics Center. SNPs were selected based on previously reported studies. For SNPs lacking literature on genetic variation, SNPs were selected to capture LD blocks (European and African ancestry) on a gene. Of 155 SNPs, 1 SNP was excluded due to low call rate (<90%), 47 SNPs were excluded due to minimum allele frequency of less than 5%, 11 SNPs were excluded due to high LD (r^2>0.9) with other SNPs; two SNPs were excluded because of deviation from Hardy-Weinberg equilibrium. Genotype for the COG-AAML0531 cohort for the selected SNPs was obtained using sequenom platform or TaqMan genotyping assays, and for a few SNPs was extracted from the data available on Illumina 2.5 Omni array. Genotype calls from multiple platforms were confirmed across multiple samples randomly collected from the cohort.
SNP genotype groups in three different modes of inheritance (additive, dominant, and recessive) were tested for association with MRD1 using logistic regression models. Odds ratio (OR) and 95% confidence interval (CI) were calculated for each test. SNPs with association P-value<0.05 were considered significant. Cox-proportional hazard models were used to evaluate association of genotype groups with EFS or OS. Hazard ratio (HR) and 95% CI were calculated for each test. p-value<0.05 was considered statistically significant. Given initial risk group assignments are well-established prognostic factors associated with outcome, outcome association analysis of SNPs with and without adjusting for risk group was also performed to identify SNPs that are associated with outcome independent of risk group.
SNPs with p<0.15 in risk-adjusted univariate evaluation with clinical endpoints (MRD1, EFS, and OS) were tested for all possible combinations with a maximum of three SNPs per model in multivariable logistic regression models for association with MRD1 and Cox-proportional hazard models for association with EFS and OS. Analysis for up to 3 SNP combinations was restricted due to computational challenges as increasing the maximum number of SNPs per model drastically increases the number of models as 1000 permutations were run for each model. Models were ordered according to their Bayesian Information Criterion (BIC) and weight in favor of each model. One thousand permutation tests were performed for each model to determine statistical significance. The six unique SNPs from the most significant models for EFS and MRD1 were included in the development of the ACS10 score as described in the results section.
The multicenter AML02 clinical trial randomly assigned subjects to receive low dose ara-C (LDAC: 100 mg/m^2; n=91 patients) or high dose ara-C(HDAC: 3 g/m^2; n=75 patients) in combination with daunorubicin and etoposide as the first course of chemotherapy as described above in patient cohort section. Thus, the association of SNPs with outcome within each arm separately was also explored (Table 5).

[1] = rs4742 (DCTD, WT T, VAR C), MOI R
[2] = rs5841 (NME4, WT C, VAR T), MOI D
[3] = rs324148 (SLC29A1, WT C, VAR T), MOI A
[4] = rs407983 (NME4, WT G, VAR C), MOI A
[5] = rs507964 (SLC29A1, WT C, VAR A), MOI R
[6] = rs580032 (CDA, WT T, VAR G), MOI D
[7] = rs602950 (CDA, WT T, VAR C), MOI A
[8] = rs747199 (SLC29A1, WT C, VAR G), MOI D
[9] = rs818196 (CDA, WT G, VAR C), MOI D
[10] = rs1048977 (CDA, WT C, VAR T), MOI D
[11] = rs1138729 (RRM2, WT A, VAR G), MOI D
[12] = rs2072671 (CDA, WT A, VAR C), MOI A
[13] = rs2396243 (SLC29A1, WT G, VAR A), MOI D
[14] = rs3088062 (CMPK1, WT T, VAR C), MOI A
[15] = rs3743162 (SLC28A1, WT C, VAR T), MOI D
[16] = rs3829540 (NME3, WT G, VAR A), MOI D
[17] = rs3925058 (CMPK1, WT T, VAR C), MOI D
[18] = rs4247411 (SLC28A1, WT C, VAR T), MOI D
[19] = rs4271567 (SLC28A1, WT T, VAR A), MOI R
[20] = rs4643786 (DCK, WT T, VAR C), MOI R

Compound: Nc1ccn([C@@H]2O[C@H](CO)[C@@H](O)[C@@H]2O)c(=O)n1 [LDAC, cytarabine]
- EFS HR (95% CI) [1]: 1.49 (0.93-2.4)
- MRD1 OR (95% CI) [1]: 1.19 (0.57-2.46)
- OS HR (95% CI) [1]: 1.96 (1.2-3.21)
- EFS HR (95% CI) [2]: 0.94 (0.68-1.31)
- MRD1 OR (95% CI) [2]: 0.7 (0.45-1.08)
- OS HR (95% CI) [2]: 0.86 (0.58-1.27)
- EFS HR (95% CI) [3]: 1.35 (0.85-2.13)
- MRD1 OR (95% CI) [3]: 0.37 (0.17-0.78)
- OS HR (95% CI) [3]: 1.14 (0.64-2.04)
- EFS HR (95% CI) [4]: 1.36 (0.88-2.09)
- MRD1 OR (95% CI) [4]: 0.92 (0.53-1.59)
- OS HR (95% CI) [4]: 1.73 (1-2.98)
- EFS HR (95% CI) [5]: 1.54 (1.04-2.29)
- MRD1 OR (95% CI) [5]: 1.41 (0.76-2.62)
- OS HR (95% CI) [5]: 1.1 (0.64-1.88)
- EFS HR (95% CI) [6]: 0.86 (0.51-1.44)
- MRD1 OR (95% CI) [6]: 1.16 (0.63-2.13)
- OS HR (95% CI) [6]: 1.12 (0.65-1.9)
- EFS HR (95% CI) [7]: 0.56 (0.33-0.96)
- MRD1 OR (95% CI) [7]: 0.57 (0.3-1.08)
- OS HR (95% CI) [7]: 0.68 (0.36-1.26)
- EFS HR (95% CI) [8]: 0.88 (0.61-1.28)
- MRD1 OR (95% CI) [8]: 1.18 (0.75-1.88)
- OS HR (95% CI) [8]: 0.55 (0.3-1)
- EFS HR (95% CI) [9]: 1.18 (0.85-1.64)
- MRD1 OR (95% CI) [9]: 1.28 (0.82-2)
- OS HR (95% CI) [9]: 1.09 (0.73-1.62)
- EFS HR (95% CI) [10]: 1.48 (1.06-2.08)
- MRD1 OR (95% CI) [10]: 1.21 (0.79-1.85)
- OS HR (95% CI) [10]: 1.14 (0.77-1.69)
- EFS HR (95% CI) [11]: 1.55 (1.11-2.18)
- MRD1 OR (95% CI) [11]: 1.19 (0.73-1.94)
- OS HR (95% CI) [11]: 1.41 (0.93-2.14)
- EFS HR (95% CI) [12]: 0.58 (0.35-0.95)
- MRD1 OR (95% CI) [12]: 0.57 (0.31-1.04)
- OS HR (95% CI) [12]: 0.68 (0.38-1.23)
- EFS HR (95% CI) [13]: 1.56 (1.12-2.16)
- MRD1 OR (95% CI) [13]: 0.92 (0.59-1.43)
- OS HR (95% CI) [13]: 1.59 (1.07-2.36)
- EFS HR (95% CI) [14]: 1.66 (0.99-2.8)
- MRD1 OR (95% CI) [14]: 2.37 (1.06-5.28)
- OS HR (95% CI) [14]: 1.63 (0.89-3.01)
- EFS HR (95% CI) [15]: 0.82 (0.56-1.19)
- MRD1 OR (95% CI) [15]: 0.77 (0.48-1.23)
- OS HR (95% CI) [15]: 1.07 (0.71-1.64)
- EFS HR (95% CI) [16]: 1.23 (0.89-1.71)
- MRD1 OR (95% CI) [16]: 1.15 (0.73-1.8)
- OS HR (95% CI) [16]: 1.22 (0.82-1.82)
- EFS HR (95% CI) [17]: 0.7 (0.51-0.97)
- MRD1 OR (95% CI) [17]: 0.6 (0.38-0.95)
- OS HR (95% CI) [17]: 0.76 (0.51-1.13)
- EFS HR (95% CI) [18]: 1.05 (0.73-1.51)
- MRD1 OR (95% CI) [18]: 0.94 (0.59-1.51)
- OS HR (95% CI) [18]: 1.03 (0.67-1.59)
- EFS HR (95% CI) [19]: 1 (0.69-1.46)
- MRD1 OR (95% CI) [19]: 0.76 (0.46-1.28)
- OS HR (95% CI) [19]: 1.12 (0.72-1.74)
- EFS HR (95% CI) [20]: 2.15 (1.28-3.64)
- MRD1 OR (95% CI) [20]: 2.34 (0.76-7.15)
- OS HR (95% CI) [20]: 1.7 (0.92-3.11)
